The target of the experiment is T1, hROMK (hKir1.1) (Homo sapiens, UniProt P48048).
T1 construct: expressed in transfected cells; HEK-hKir1.1)
T1 sequence (P48048 1-391): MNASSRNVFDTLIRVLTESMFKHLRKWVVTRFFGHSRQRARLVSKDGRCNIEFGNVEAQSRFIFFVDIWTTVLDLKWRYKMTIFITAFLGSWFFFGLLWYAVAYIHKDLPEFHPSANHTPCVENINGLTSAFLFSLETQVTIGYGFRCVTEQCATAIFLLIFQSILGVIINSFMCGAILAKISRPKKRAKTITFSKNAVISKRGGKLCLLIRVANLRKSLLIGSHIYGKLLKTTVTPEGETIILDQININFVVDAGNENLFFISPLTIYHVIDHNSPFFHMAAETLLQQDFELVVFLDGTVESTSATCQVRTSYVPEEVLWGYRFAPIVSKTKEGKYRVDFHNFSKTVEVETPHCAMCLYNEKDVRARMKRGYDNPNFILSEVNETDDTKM
The experiment in a line: Thallium Flux Assay (ROMK channel functional thallium flux assay, FLIPR-Tetra, 384 wells). The experiment is classed as cell-based. As to conditions: HEK293 cells stably expressing hROMK (hKir1.1); 30 min incubation with test compound. Here is the method: The following Thallium Flux Assay was performed on the final product compounds in all the Examples. This assay makes use of the ability of thallium to permeate through open ROMK channels and increase the fluorescence of a dye previously loaded into the cells. Under control conditions, cells loaded with dye and exposed to thallium-containing medium display a time-dependent increase in fluorescence, the rate of which depends on number of functional channels. When cells are incubated in the presence of a channel inhibitor, the increase in fluorescence is attenuated in a concentration-dependent manner, and IC50 values of inhibition by compounds can be accurately determined. This assay has been established with cell lines expressing either human, or rat ROMK channels, and operates in 384-well format.
HEK293 cells stably expressing hROMK (hKir1.1) were grown at 37° C. in a 10% CO2 humidified incubator in complete growth media: Dulbecco's Modified Eagle Medium supplemented with non-essential amino acids, Penicillin/Streptomycin/Glutamine, G418 and FBS. At >80% confluency, aspirate the media from the flask and rinse with 10 mL Calcium/Magnesium-free PBS. Add 5 mL of 1× trypsin (prepared in Ca/Mg Free PBS) to T-225 flask and return flask to 37° C./CO2 incubator for 2-3 minutes. To dislodge the cell, gently bang the side of the flask with your hand. Triturate the cells completely and then transfer the cells to 25 mL complete media. Centrifuge at 1,500 rpm for 6 min followed by resuspension in complete growth media and determine cell concentration. For typical re-seeding, 4E6 cells/T-225 flask will attain >80% confluency in 4 days. Under ideal growth conditions and appropriate tissue culture practices, this cell line is stable for 40-45 passages.
• FluxOR™ Reagent (Component A) • FluxOR™ Assay Buffer (Component B)—10× Concentrate • PowerLoad™ Concentrate (Component C)—100× Concentrate • Probenecid (Component D)—Lyophilized sample is kept at −20° C. Water soluble, 100× after solubilization in 1 mL water. […] Store at 4° C. • Thallium sulfate (Tl2SO4) Concentrate (Component G)—50 mM in water. Store at 4° C. • DMSO (dimethyl sulfoxide, Component H)—1 mL (100%) Reagent Preparation: FluxOR Working Solutions • 1000× FluxOR™ Reagent: Reconstitute a vial of component A in 100 μl DMSO; Mix well; Store 10 μl aliquots at −20° C. • 1× FluxOR™ Assay Buffer: Dilute Component B 10-fold with water; Adjust pH to 7.4 with Hepes/NaOH; Filter and store at 4° C. • Probenecid/Assay Buffer: 100 mL of 1× FluxOR™ Assay Buffer; 1 mL of reconstituted component D; Store at 4° C. • Loading Buffer (per microplate): 10 μl 1000× FluxOR™ Reagent; 100 μl component C; 10 mL Probenecid/Assay Buffer • Compound Buffer (per microplate): 20 mL Probenecid/Assay Buffer; 0.3 mM ouabain (10 mM ouabain in water can be stored in amber bottle/aluminum foil at room temperature); Test compound • 1× FluxOR™ Chloride-Free Buffer: Prepare 1× working solution in water. Can be stored at room temperature • Stimulant Buffer (prepared at 5× final concentration in 1× FluxOR™ Chloride-Free Buffer): 7.5 mM Thallium sulfate and 0.75 mM Potassium sulfate (to give a final assay concentration of 3 mM Thallium/0.3 mM Potassium). Store at 4° C. when not in use. If kept sterile, this solution is good for months. Assay Protocol—
The ROMK channel functional thallium flux assay is performed in 384 wells, using the FLIPR-Tetra instrument. HEK-hKir1.1 cells are seeded in Poly-D-Lysine microplates and kept in a 37° C.-10% CO2 incubator overnight. On the day of the experiment, the growth media is replaced with the FluxOR™ reagent loading buffer and incubated, protected from light, at ambient temperature (23-25° C.) for 90 min. The loading buffer is replaced with assay buffer±test compound followed by 30 min incubation at ambient temperature, where the Thallium/Potassium stimulant is added to the microplate.
• 1. Seed HEK-hKir1.1 cells (50 μl at 20,000 cells/well) in 384-well PDL coated Microplates • 2. […]
On to `Cc1c([C@@H](O)CN2CCN(c3ccc4cc(C#N)cnc4c3)C(=O)C2)ccc2c1COC2=O` [Example 10, 7-{4-[(2R)-2-Hydroxy-2-(4-methyl-1-oxo-1,3-dihydro-2-benzofuran-5-yl)ethyl]-2-oxopiperazin-1-yl}quinoline-3-carbonitrile], for which the IC50 worked out at 0.21 µM.
Molecule `Cc1c([C@@H](O)CN2CCN(c3ccc4cc(C#N)sc4n3)C(=O)C2)ccc2c1COC2=O` [Example 8, 6-{4-[(2R)-2-Hydroxy-2-(4-methyl-1-oxo-1,3-dihydro-2-benzofuran-5-yl)ethyl]-2-oxopiperazin-1-yl}thieno-[2,3-b]pyridine-2-carbonitrile] registered an IC50 of 0.16 µM.
The molecule `Cc1c([C@@H](O)CN2CCN(c3ccc4ccc(C#N)cc4c3)C(=O)C2)ccc2c1COC2=O` [Example 6, 7-{4-[(2R)-2-Hydroxy-2-(4-methyl-1-oxo-1,3-dihydro-2-benzofuran-5-yl)ethyl]-2-oxopiperazin-1-yl}naphthalene-2-carbonitrile] came in with a concentration for half-maximal inhibition (IC50) of 0.09 µM.
In the case of `Cc1cc2nc(N3CCN(C[C@H](O)c4ccc5c(c4C)COC5=O)CC3=O)ccc2cc1C#N` [Example 12, 2-{4-[(2R)-2-Hydroxy-2-(4-methyl-1-oxo-1,3-dihydro-2-benzofuran-5-yl)ethyl]-2-oxopiperazin-1-yl}-7-methylquinoline-6-carbonitrile] it was 0.08 µM.
As for `Cc1cc2c(cc1C(O)CN1CCN(c3ccc4cc(C#N)ccc4c3)C(=O)C1)COC2=O` (racemic) [Example 3, 6-{4-[2-Hydroxy-2-(6-methyl-1-oxo-1,3-dihydro-2-benzofuran-5-yl)ethyl]-2-oxopiperazin-1-yl}naphthalene-2-carbonitrile], half-maximal inhibition (IC50) required 0.07 µM.
Under `Cc1c([C@@H](O)CN2CCN(c3cc4ccc(C#N)cc4cn3)C(=O)C2)ccc2c1COC2=O` [Example 5, 3-{4-[(2R)-2-Hydroxy-2-(4-methyl-1-oxo-1,3-dihydro-2-benzofuran-5-yl)ethyl]-2-oxopiperazin-1-yl}isoquinoline-7-carbonitrile] stands 0.08 µM; under `Cc1c([C@@H](O)CN2CCN(c3ccc4cc(C#N)sc4c3)C(=O)C2)ccc2c1COC2=O` [Example 14, 6-{4-[(2R)-2-Hydroxy-2-(4-methyl-1-oxo-1,3-dihydro-2-benzofuran-5-yl)ethyl]-2-oxopiperazin-1-yl}-1-benzothiophene-2-carbonitrile], 0.16 µM; under `Cc1c([C@@H](O)CN2CCN(c3cnc4cc(C#N)ccc4c3)C(=O)C2)ccc2c1COC2=O` [Example 11, 3-{4-[(2R)-2-Hydroxy-2-(4-methyl-1-oxo-1,3-dihydro-2-benzofuran-5-yl)ethyl]-2-oxopiperazin-1-yl}quinoline-7-carbonitrile], 0.14 µM.
`Cc1c([C@@H](O)CN2CCN(c3ccc4nc(S(C)(=O)=O)ccc4c3)C(=O)C2)ccc2c1COC2=O` [Example 15, 4-[(2R)-2-hydroxy-2-(4-methyl-1-oxo-1,3-dihydro-2-benzofuran-5-yl)ethyl]-1-[2-(methylsulfonyl)quinolin-6-yl]piperazin-2-one] came in with a half-maximal inhibitory concentration (IC50) of 0.22 µM.
Under `Cc1c([C@@H](O)CN2CCN(c3nc4ccc(C#N)cc4s3)C(=O)C2)ccc2c1COC2=O` [Example 9, 2-{4-[(2R)-2-Hydroxy-2-(4-methyl-1-oxo-1,3-dihydro-2-benzofuran-5-yl)ethyl]-2-oxopiperazin-1-yl}-1,3-benzothiazole-6-carbonitrile] stands 0.09 µM; under `Cc1c([C@@H](O)CN2CCN(c3nc4cc(C#N)ccc4s3)C(=O)C2)ccc2c1COC2=O` [Example 7, 2-{4-[(2R)-2-Hydroxy-2-(4-methyl-1-oxo-1,3-dihydro-2-benzofuran-5-yl)ethyl]-2-oxopiperazin-1-yl}-1,3-benzothiazole-5-carbonitrile], 0.04 µM.
In the case of `Cc1c([C@@H](O)CN2CCN(c3ccc4cc(C#N)ccc4c3)C(=O)C2)ccc2c1COC2=O` [Example 2, 6-{4-[(2R)-2-Hydroxy-2-(4-methyl-1-oxo-1,3-dihydro-2-benzofuran-5-yl)ethyl]-2-oxopiperazin-1-yl}naphthalene-2-carbonitrile] it was 0.05 µM.
Take `N#Cc1ccc2cc(N3CCN(CCc4ccc5c(c4)COC5=O)CC3=O)ccc2c1` [Example 1, 6-{2-Oxo-4-[2-(1-oxo-1,3-dihydro-2-benzofuran-5-yl)ethyl]piperazin-1-yl}naphthalene-2-carbonitrile]: the IC50 is 0.06 µM.
As to `Cc1c([C@@H](O)CN2CCN(c3cc4ccc(C#N)c(C)c4cn3)C(=O)C2)ccc2c1COC2=O` [Example 13, 3-{4-[(2R)-2-Hydroxy-2-(4-methyl-1-oxo-1,3-dihydro-2-benzofuran-5-yl)ethyl]-2-oxopiperazin-1-yl}-8-methylisoquinoline-7-carbonitrile], the IC50 came to 0.15 µM.

For the origin of these results see patent publication US8999991B2, “Inhibitors of the renal outer medullary potassium channel” (Merck Sharp & Dohme Corp., priority 2011, dated 2015).
